{"source": "paper PMC9321663", "about": "“The DevTox Germ Layer Reporter Platform: An Assay Adaptation of the Human Pluripotent Stem Cell Test” (Toxics, 2022)", "key": {"[1]": {"test_system": "RUES2-GLR cells", "test": "in vitro", "conditions": "for Emax: Homo sapiens, read-out: Cell Count % Max Inhibition", "method": "(§1) The total test chemical incubation period was 48 h.\n(§2) Assay plate controls included non-differentiated pluripotent cells maintained in complete Essential 8 Flex medium (baseline control), endoderm differentiated cells (differentiation control), endoderm differentiated cells treated with DMSO (0.2%) (solvent control), and TGF-ß receptor inhibitor SB431542 (1 µM)-treated cells (developmental toxicant-positive control) (Figure S3). All experiments were completed with a minimum of four biological replicates (n = 4).\n(§3) (Supplementary Materials)."}, "[2]": {"conditions": "cited from earlier work; for Development Toxicant Classification: Table S2; for Classification: developmental toxicant classification (Teratogen / Non-Teratogen) of reference and training chemicals, ref DOI per chemical: 10.1093/toxsci/kft239, 10.1093/toxsci/kfaa014, 10.1177/026119290203000204, 10.1038/s41598-020-59542-x; for DT Class.: developmental toxicant classification, chemicals common with hPST"}, "[3]": {"test_system": "SOX17 in H9 human ESC line", "conditions": "SOX17 half-maximal inhibition concentration; read-out: hPST IC50; cited from earlier work"}, "[4]": {"test_system": "SOX17 (endoderm marker) in RUES2-GLR cells", "test": "DevTox GLR-Endo assay: decrease in percent SOX17-positive cells (AEID 3094, Sox17_dn)", "conditions": "for Hit Call: Table S2, SOX17-positive cells, cutoff 3*bmad; for DevTox ACC: Table S2, percent SOX17-positive cells; for HIT−CALL: tcpl plot AEID3094, COFF 20.3", "method": "as §1, §2, §3"}, "[5]": {"test_system": "SOX17 (endoderm marker) in RUES2-GLR cells", "test": "DevTox GLR-Endo assay: increase in percent SOX17-positive cells (AEID 3093, Sox17_up)", "type": "cell-based, human", "conditions": "for HIT−CALL: tcpl plot AEID3093, COFF 20.3; for Emax: Homo sapiens", "method": "as §1, §3"}, "[6]": {"test_system": "H9 human ESC line", "conditions": "cited from earlier work"}, "[7]": {"test_system": "SOX2 (ectoderm and pluripotency marker) in RUES2-GLR cells", "test": "DevTox GLR-Endo assay: increase in percent SOX2-positive cells (AEID 3095, Sox2_up)", "conditions": "for MAX_MEAN: tcpl plot AEID3095, maximum mean response; for MAX_MED: tcpl plot AEID3095, maximum median response", "quoted_text": "RUES2-GLR cells were seeded 24 h prior to differentiation initiation into vitronectin-coated 384-well CellCarrier Ultra plates (10.6 mm^2/well) (Perkin Elmer, Waltham, MA, USA). Vitronectin (0.5 µg/cm^2)-coated plates were prepared and stored at 4 °C, wrapped in parafilm, for less than seven days and incubated at room temperature for one hour prior to cell seeding. […] Cells were dispensed into 20 µL coating solution using a Certus FLEX Micro Dispenser (Fritz Gyger, Gwatt, Switzerland) with a 0.45 µm valve to a final volume of 100 µL and density of 2.8 × 10^3 cells per well.\nFollowing a 24 h post-seeding incubation period (Time = 0 h) (Figure 3A), directed endoderm differentiation was initiated with the PSC Definitive Endoderm Induction kit (Gibco, Waltham, MA, USA). […] A target dilution series (0.002–200 µM) was generated by dispensing variable nanoliter volumes of test chemical and backfilling with a complementary volume of DMSO using Echo Cherry Pick software (v.1.6.2). Wells were backfilled with 50 µL of induction medium using a Certus FLEX Micro Dispenser with 0.45 µm valves. Test compound treatment plates were mixed on a Multi-Microplate Genie mixer at 700 rpm for 10 min and subsequently incubated for two hours in a humidified atmosphere at 37 °C with 5% CO2. Each chemical treatment (0 h–Medium A; 24 h–Medium B) were prepared the day of treatment. At 0 h, cell culture medium was aspirated from the assay plate at a rate of 1 µL/s and 40 µL of Medium A ± test chemical applied using a CyBio FeliX automated liquid handler (Analytik Jena, Jena, Germany). At 24 h, conditioned cell culture medium was aspirated and 40 µL of Medium B ± test chemical was applied. At 48 h, cells were prepared for high-content image acquisition by fixation and nuclear staining. The total test chemical incubation period was 48 h. For fixation, a 4% paraformaldehyde (PFA) solution was achieved by adding 40 µL of 8% PFA directly to cell culture medium using a CyBio FeliX liquid handler. […] Following an additional 30 min incubation period at room temperature, staining solution was aspirated, 50 µL of DPBS was added, and plate sealed with MicroAmp Optical Adhesive Film (Applied Biosystems, Waltham, MA, USA).\nImages were acquired within 12 h post-fixation using an Opera Phenix High-Content Screening System (Perkin Elmer, Waltham, MA, USA). […] Cell identification and mean biomarker fluorescent intensities were calculated using Harmony image analysis software (Perkin Elmer, Waltham, MA, USA). Cell nuclei were identified using the object classifying algorithm C of the software with border objects excluded using the “Remove Border Objects” feature. Mean cell biomarker intensity statistics were gathered from each object and exported for further analysis using a custom script in Python version 3.7.4 [61] […] For each plate, pluripotent-negative control wells were used to establish baseline intensity values and a cutoff threshold for determining SOX17 and BRA biomarker-positive cells. Endoderm differentiated positive control wells were used to establish baseline intensity values and a cutoff threshold for SOX2-positive cells. Cells with a mean intensity five times the baseline median absolute deviation (5*bmad) above the median cell intensity for plate-based control population technical replicates were considered positive. Well-based cell counts, reflected by the sum of total counted objects from all fields, were used to calculate the percent responders for each respective biomarker and evaluate cytotoxicity. Well-level results were exported for data modeling in the ToxCast Pipeline.\nThe ToxCast Pipeline R package (tcpl v.2.0.2) was used to normalize, fit, and qualify concentration-response screening data [63]."}, "[8]": {"test": "in vitro", "conditions": "human", "method": "as §1, §2, §3"}, "[9]": {"test_system": "BRA (mesoderm marker) in RUES2-GLR cells", "test": "DevTox GLR-Endo assay: increase in percent BRA-positive cells (AEID 3096, Bra_up)", "type": "cell-based, human", "conditions": "for HIT−CALL: tcpl plot AEID3096, COFF 0.774; for MAX_MEAN: tcpl plot AEID3096, maximum mean response", "method": "as §1, §3"}, "[10]": {"conditions": "cytotoxicity half-maximal concentration"}, "[11]": {"conditions": "Homo sapiens, read-out: DevTox % Max Inhibition"}, "[12]": {"conditions": "Homo sapiens, read-out: MAX_MEAN"}, "[13]": {"conditions": "Homo sapiens, read-out: MAX_MED"}, "[14]": {"conditions": "Homo sapiens, read-out: tp (winning model)"}, "[15]": {"conditions": "tcpl plot AEID3093, maximum mean response, read-out: MAX_MEAN"}, "[16]": {"conditions": "tcpl plot AEID3093, maximum median response, read-out: MAX_MED"}}, "note": "Where two headings read alike, the source gives them in different places."}
{"compound": "CC1=C(/C=C/C(C)=C/C=C/C(C)=C\\C(=O)O)C(C)(C)CCC1", "values": [{"measurement": "Cell Count ACC", "setting": "[1]", "result": 4.122, "unit": "µM"}, {"measurement": "Cell Count % Max Inhibition", "setting": "[1]; Table S2, cell count relative to DMSO", "result": 97.7228, "unit": "%"}, {"measurement": "CC50", "setting": "[1]; read-out: DevTox-GLR Endo CC50, cell count half-maximal concentration, 48 h exposure", "result": 10.2, "unit": "µM"}, {"measurement": "Development Toxicant Classification", "setting": "[2]", "result": "Positive"}, {"measurement": "Classification", "setting": "[2]", "result": "Teratogen"}, {"measurement": "DT Class.", "setting": "[2]", "result": "Pos"}, {"measurement": "IC50", "setting": "[3]", "result": 0.2, "unit": "µM"}, {"measurement": "SOX17 ACC relative to cytotoxic concentration (in words)", "setting": "[4]", "result": "below cytotoxic concentrations"}, {"measurement": "Hit Call", "setting": "[4]", "result": "Positive"}, {"measurement": "DevTox % Max Inhibition", "setting": "[4]; Table S2, percent SOX17-positive cells relative to DMSO", "result": 100.964, "unit": "%"}, {"measurement": "DevTox ACC", "setting": "[4]; 48 h exposure", "result": 0.02117, "unit": "µM"}, {"measurement": "AC50", "setting": "[4]; read-out: DevTox-GLR Endo AC50, SOX17 half-maximal activity concentration, 48 h exposure", "result": 0.16, "unit": "µM"}, {"measurement": "HIT−CALL", "setting": "[4]", "result": 1}, {"measurement": "ga (winning model)", "setting": "[4]; tcpl plot AEID3094, gain parameter of winning curve fit (log concentration, µM axis), hit calls only", "result": "−0.807"}, {"measurement": "MAX_MEAN", "setting": "[4]; tcpl plot AEID3094, maximum mean response", "result": 101, "unit": "Percent Activity"}, {"measurement": "MAX_MED", "setting": "[4]; tcpl plot AEID3094, maximum median response", "result": 101, "unit": "Percent Activity"}, {"measurement": "tp (winning model)", "setting": "[4]; tcpl plot AEID3094, top of winning curve fit (Hill or gain-loss), hit calls only", "result": 100}, {"measurement": "HIT−CALL", "setting": "[5]", "result": 0}, {"measurement": "MAX_MEAN", "setting": "[5]; tcpl plot AEID3093, maximum mean response", "result": "−11.9", "unit": "Percent Activity"}, {"measurement": "MAX_MED", "setting": "[5]; tcpl plot AEID3093, maximum median response", "result": "−11.9", "unit": "Percent Activity"}, {"measurement": "hPST TC50", "setting": "[6]; [10]", "result": 140, "unit": "µM"}, {"measurement": "hPST TC50", "setting": "[6]; hPST cytotoxicity", "result": 140, "unit": "µM"}, {"measurement": "ga (winning model)", "setting": "[7]; tcpl plot AEID3095, gain parameter of winning curve fit (log concentration, µM axis), hit calls only", "result": 1.54}, {"measurement": "MAX_MEAN", "setting": "[7]", "result": 47.5, "unit": "Percent Activity"}, {"measurement": "MAX_MED", "setting": "[7]", "result": 48.5, "unit": "Percent Activity"}, {"measurement": "tp (winning model)", "setting": "[7]; tcpl plot AEID3095, top of winning curve fit (Hill or gain-loss), hit calls only", "result": 39.6}]}
{"compound": "O=c1[nH]c(=O)n([C@H]2C[C@H](O)[C@@H](CO)O2)cc1Br", "note": "[5-Bromo-2’-deoxyuridine]", "values": [{"measurement": "Emax", "setting": "[1]", "result": 87.6, "unit": "%"}, {"measurement": "Cell Count ACC", "setting": "[1]; human, 48 h", "result": 3.994, "unit": "µM"}, {"measurement": "CC50 at 48 h", "setting": "[8]", "result": 9.37, "unit": "µM"}, {"measurement": "Development Toxicant Classification", "setting": "[2]", "result": "Positive"}, {"measurement": "Classification", "setting": "[2]", "result": "Teratogen"}, {"measurement": "DT Class.", "setting": "[2]", "result": "Pos"}, {"measurement": "IC50", "setting": "[3]", "result": 0.2, "unit": "µM"}, {"measurement": "SOX17 ACC relative to cytotoxic concentration (in words)", "setting": "[4]", "result": "below cytotoxic concentrations"}, {"measurement": "AC50", "setting": "[4]; Homo sapiens, 48 h, read-out: DevTox-GLR Endo AC50 (µM), SOX17 half-maximal activity concentration, 48 h exposure", "result": 0.55, "unit": "µM"}, {"measurement": "Emax", "setting": "[4]; [11]", "result": 102, "unit": "%"}, {"measurement": "Emax", "setting": "[4]; [12]", "result": 102, "unit": "%"}, {"measurement": "Emax", "setting": "[4]; [13]", "result": 102, "unit": "%"}, {"measurement": "AC50", "setting": "[4]; Homo sapiens, read-out: ga (winning model), tcpl plot AEID3094, gain parameter of winning curve fit (log concentration, µM axis), hit calls only (converted)", "result": 0.548, "unit": "µM"}, {"measurement": "Emax", "setting": "[4]; [14]", "result": 101, "unit": "%"}, {"measurement": "Hit Call", "setting": "[4]", "result": "Positive"}, {"measurement": "DevTox ACC", "setting": "[4]; 48 h exposure", "result": 0.4591, "unit": "µM"}, {"measurement": "HIT−CALL", "setting": "[4]", "result": 1}, {"measurement": "Emax", "setting": "[5]; [15]", "result": -2.88, "unit": "%"}, {"measurement": "Emax", "setting": "[5]; [16]", "result": -2.98, "unit": "%"}, {"measurement": "HIT−CALL", "setting": "[5]", "result": 0}, {"measurement": "hPST TC50", "setting": "[6]; [10]", "result": 3.4, "unit": "µM"}, {"measurement": "hPST TC50", "setting": "[6]; hPST cytotoxicity", "result": 3.4, "unit": "µM"}, {"measurement": "AC50", "setting": "[7]; Homo sapiens, read-out: ga (winning model)", "result": 13.2, "unit": "µM"}, {"measurement": "Emax", "setting": "[7]; [14]", "result": 2.13, "unit": "%"}, {"measurement": "MAX_MEAN", "setting": "[7]", "result": 2.12, "unit": "Percent Activity"}, {"measurement": "MAX_MED", "setting": "[7]", "result": 2.23, "unit": "Percent Activity"}]}
{"compound": "Nc1nc2c(ncn2COCCO)c(=O)[nH]1", "note": "[Acyclovir]", "values": [{"measurement": "Emax", "setting": "[1]", "result": 7.77, "unit": "%"}, {"measurement": "Cell Count ACC", "setting": "[1]; human, 48 h", "result": ">200", "unit": "µM"}, {"measurement": "IC50", "setting": "[3]", "result": "> 200", "unit": "µM"}, {"measurement": "Emax", "setting": "[4]; [11]", "result": 7.79, "unit": "%"}, {"measurement": "Emax", "setting": "[4]; [12]", "result": 8.36, "unit": "%"}, {"measurement": "Emax", "setting": "[4]; [13]", "result": 7.79, "unit": "%"}, {"measurement": "Hit Call", "setting": "[4]", "result": "Negative"}, {"measurement": "HIT−CALL", "setting": "[4]", "result": 0}, {"measurement": "Emax", "setting": "[5]; [15]", "result": 6.68, "unit": "%"}, {"measurement": "Emax", "setting": "[5]; [16]", "result": 7.67, "unit": "%"}, {"measurement": "HIT−CALL", "setting": "[5]", "result": 0}, {"measurement": "HIT−CALL", "setting": "[9]", "result": 1}, {"measurement": "MAX_MEAN", "setting": "[9]", "result": 0.981, "unit": "Percent Activity"}, {"measurement": "MAX_MED", "setting": "[9]; tcpl plot AEID3096, maximum median response", "result": 1.09, "unit": "Percent Activity"}, {"measurement": "MAX_MEAN", "setting": "[7]", "result": 2.09, "unit": "Percent Activity"}, {"measurement": "MAX_MED", "setting": "[7]", "result": 0.473, "unit": "Percent Activity"}]}
{"compound": "Cn1c(=O)c2c(ncn2C)n(C)c1=O", "note": "[Caffeine]", "values": [{"measurement": "Emax", "setting": "[1]", "result": 10.3, "unit": "%"}, {"measurement": "Cell Count ACC", "setting": "[1]; human, 48 h", "result": ">200", "unit": "µM"}, {"measurement": "CC50 at 48 h", "setting": "[8]", "result": "> 200", "unit": "µM"}, {"measurement": "IC50", "setting": "[3]", "result": "> 400", "unit": "µM"}, {"measurement": "AC50", "setting": "[4]; Homo sapiens, 48 h, read-out: DevTox-GLR Endo AC50 (µM)", "result": "> 200", "unit": "µM"}, {"measurement": "Emax", "setting": "[4]; [11]", "result": 9.41, "unit": "%"}, {"measurement": "Emax", "setting": "[4]; [12]", "result": 6.68, "unit": "%"}, {"measurement": "Emax", "setting": "[4]; [13]", "result": 9.41, "unit": "%"}, {"measurement": "Hit Call", "setting": "[4]", "result": "Negative"}, {"measurement": "DevTox ACC", "setting": "[4]; 48 h exposure", "result": ">200", "unit": "µM"}, {"measurement": "HIT−CALL", "setting": "[4]", "result": 0}, {"measurement": "Emax", "setting": "[5]; [15]", "result": 9.91, "unit": "%"}, {"measurement": "Emax", "setting": "[5]; [16]", "result": 11, "unit": "%"}, {"measurement": "HIT−CALL", "setting": "[5]", "result": 0}, {"measurement": "HIT−CALL", "setting": "[9]", "result": 1}, {"measurement": "MAX_MEAN", "setting": "[9]", "result": 1.09, "unit": "Percent Activity"}, {"measurement": "MAX_MEAN", "setting": "[7]", "result": 0.413, "unit": "Percent Activity"}, {"measurement": "MAX_MED", "setting": "[7]", "result": 0.416, "unit": "Percent Activity"}]}
